Measurements as given in US20250326743A1, “CRYSTAL FORMS OF TRIAZINE DIONE DERIVATIVE AND PREPARATION METHOD THEREFOR” (Jiangsu Hengrui Pharmaceuticals Co., Ltd., priority 2022, published 2025).

Key:
[1] = Toxicokinetic evaluation of 14 days of repeated intragastric administration to SD rats; assay type: in vivo
Experimental: SD rats were used as the test animals. After intragastric administration of the test compounds to the SD rats, the concentrations of the original forms of the compounds in the plasma and the administration solutions were measured by the LC/MS/MS method at different time points.
Twenty-four SD rats, with an equal number of males and females, were evenly divided into 6 groups, each consisting of 4 rats with an equal number of males and females. The rats were provided by Vital River Laboratory Animal Technology Co., Ltd.
A certain amount of compound MYK-461 was weighed out, and 0.5% MC was added to prepare a colorless clear solution.
Compound MYK-461 was administered at doses of 0.5 mg/kg, 1.5 mg/kg, and 3 mg/kg, each with a volume of 10 mL/kg.
0.2-mL blood samples were collected from the orbit at 0.5 h, 1.0 h, 2.0 h, 4.0 h, 8.0 h, and 24.0 h after administration on day 1, and 0.2-mL blood samples were collected from the orbit before administration and at 0.5 h, 1.0 h, 2.0 h, 4.0 h, 8.0 h, and 24.0 h after administration on day 7 and day 14. The blood samples were placed into EDTA-K2 anticoagulation tubes and centrifuged at 10,000 rpm for 1 min (4° C.), and the plasma was isolated within 1 h and stored at −20° C. before analysis. The procedure starting from the blood collection to the centrifugation was performed under ice-bath conditions. Two hours after administration, food was provided. […]

[2] = Influencing factor stability study (30 days, open flasks); assay type: physicochemical
[3] = Long-term/accelerated stability study (6 months); assay type: physicochemical
[4] = DVS (dynamic vapor sorption) hygroscopicity; assay type: physicochemical; details: for hygroscopic weight gain: DVS
Experimental: DVS refers to dynamic vapor sorption: The measurement was performed using SMS DVS Advantage; at 25° C., the humidity was changed as follows: 50%-95%-0%-95%-50%, in steps of 10% (5% for the last step) (specific humidity ranges are shown in corresponding patterns, and those listed here were used in most cases); the criterion was dm/dt being not greater than 0.002%.

[5] = Light exposure (4500 Lux), 5 days
[6] = Light exposure (4500 Lux), 10 days
[7] = Light exposure (4500 Lux), 30 days

CC(C)n1c(=O)cc(N[C@@H](C)c2ccccc2)[nH]c1=O [MYK-461, reference compound]
accumulation in the SD rats [1]: caused significant accumulation

Cc1ccc(F)c([C@H](C)Nc2nc(=O)n(C3CCOCC3)c(=O)[nH]2)c1 [crystal form B, (S)-6-((1-(2-fluoro-5-methylphenyl)ethyl)amino)-3-(tetrahydro-2H-pyran-4-yl)-1,3,5-triazine-2,4(1H,3H)-dione]
Color and state ([2]; 40° C., 5 days): Off-white solid
Crystal form ([2]; 40° C., 5 days): No change
Purity % ([2]; 40° C., 5 days): 99.8%
Color and state ([2]; 40° C., 10 days): Off-white solid
Crystal form ([2]; 40° C., 10 days): No change
Purity % ([2]; 40° C., 10 days): 99.9%
Color and state ([2]; 40° C., 30 days): Off-white solid
Crystal form ([2]; 40° C., 30 days): No change
Purity % ([2]; 40° C., 30 days): 99.9%
Color and state ([2]; 60° C., 5 days): Off-white solid
Crystal form ([2]; 60° C., 5 days): No change
Purity % ([2]; 60° C., 5 days): 99.9%
Color and state ([2]; 60° C., 10 days): Off-white solid
Crystal form ([2]; 60° C., 10 days): No change
Purity % ([2]; 60° C., 10 days): 99.9%
Color and state ([2]; 60° C., 30 days): Off-white solid
Crystal form ([2]; 60° C., 30 days): No change
Purity % ([2]; 60° C., 30 days): 99.9%
Color and state ([2]; 75% RH, 5 days): Off-white solid
Crystal form ([2]; 75% RH, 5 days): No change
Purity % ([2]; 75% RH, 5 days): 99.8%
Color and state ([2]; 75% RH, 10 days): Off-white solid
Crystal form ([2]; 75% RH, 10 days): No change
Purity % ([2]; 75% RH, 10 days): 99.8%
Color and state ([2]; 75% RH, 30 days): Off-white solid
Crystal form ([2]; 75% RH, 30 days): No change
Purity % ([2]; 75% RH, 30 days): 99.8%
Color and state ([2]; 92.5% RH, 5 days): Off-white solid
Crystal form ([2]; 92.5% RH, 5 days): No change
Purity % ([2]; 92.5% RH, 5 days): 99.9%
Color and state ([2]; 92.5% RH, 10 days): Off-white solid
Crystal form ([2]; 92.5% RH, 10 days): No change
Purity % ([2]; 92.5% RH, 10 days): 99.9%
Color and state ([2]; 92.5% RH, 30 days): Off-white solid
Crystal form ([2]; 92.5% RH, 30 days): No change
Purity % ([2]; 92.5% RH, 30 days): 99.9%
Color and state ([2]; Initial, 0 days): Off-white solid
Purity % ([2]; Initial, 0 days): 99.9%
Color and state [2, 5]: Off-white solid
Crystal form [2, 5]: No change
Purity % [2, 5]: 99.9%
Color and state [2, 6]: Off-white solid
Crystal form [2, 6]: No change
Purity % [2, 6]: 99.9%
Color and state [2, 7]: Off-white solid
Crystal form [2, 7]: No change
Purity % [2, 7]: 99.9%
physical and chemical stability (conclusion) ([2]; light exposure, 40° C. and 60° C., 75% RH and 92.5% RH, 30 days): both good physical stability and good chemical stability
physical and chemical stability (conclusion) ([3]; 25° C. with 60% RH and 40° C. with 75% RH, 6 months): both good physical stability and good chemical stability
Crystal form ([3]; 25° C./60% RH, 1 month): No change
Purity % ([3]; 25° C./60% RH, 1 month): 99.8%
Crystal form ([3]; 25° C./60% RH, 2 months): No change
Purity % ([3]; 25° C./60% RH, 2 months): 99.8%
Crystal form ([3]; 25° C./60% RH, 3 months): No change
Purity % ([3]; 25° C./60% RH, 3 months): 99.9%
Crystal form ([3]; 25° C./60% RH, 6 months): No change
Purity % ([3]; 25° C./60% RH, 6 months): 99.9%
Crystal form ([3]; 40° C./75% RH, 1 month): No change
Purity % ([3]; 40° C./75% RH, 1 month): 99.9%
Crystal form ([3]; 40° C./75% RH, 2 months): No change
Purity % ([3]; 40° C./75% RH, 2 months): 99.9%
Crystal form ([3]; 40° C./75% RH, 3 months): No change
Purity % ([3]; 40° C./75% RH, 3 months): 99.9%
Crystal form ([3]; 40° C./75% RH, 6 months): No change
Purity % ([3]; 40° C./75% RH, 6 months): 99.9%
Purity % ([3]; Initial): 99.9%
hygroscopic weight gain ([4]; accelerated conditions, 70% RH): about 0.298%
hygroscopic weight gain ([4]; extreme conditions, 90% RH): about 0.418%
hygroscopic weight gain ([4]; normal storage conditions, 60% RH): about 0.242%
crystal form after DVS testing ([4]; after DVS testing): did not change
